According to ChEMBL document CHEMBL1133597, “Fluorosulfonyl-substituted xanthines as selective irreversible antagonists for the A(1)-adenosine receptor” (J Med Chem, 2000):

Assays:
[1] = biological target: T1, Adenosine receptor A1 (Homo sapiens) (UniProt P30542); experiment: Percent loss of [3H]-DPCPX binding to adenosine A1 receptor at 200 nM; settings: Cricetulus griseus
T1 sequence (whole entry): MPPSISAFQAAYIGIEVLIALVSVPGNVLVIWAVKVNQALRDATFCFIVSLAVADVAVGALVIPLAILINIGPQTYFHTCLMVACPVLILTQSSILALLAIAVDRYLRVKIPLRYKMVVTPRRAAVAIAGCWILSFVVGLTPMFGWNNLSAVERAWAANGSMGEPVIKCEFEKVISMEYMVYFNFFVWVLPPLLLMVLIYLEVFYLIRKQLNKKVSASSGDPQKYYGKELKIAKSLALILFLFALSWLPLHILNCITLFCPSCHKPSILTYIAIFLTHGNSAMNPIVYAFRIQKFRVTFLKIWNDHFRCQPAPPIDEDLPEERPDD

[2] = biological target: T1, Adenosine receptor A1 (Homo sapiens); experiment: Percent loss of [3H]DPCPX binding to adenosine A1 receptor at 0.05 nM; settings: Cricetulus griseus
[3] = biological target: T1, Adenosine receptor A1 (Homo sapiens); experiment: Percent loss of [3H]DPCPX binding to adenosine A1 receptor at 0.1 nM; settings: Cricetulus griseus
[4] = biological target: T1, Adenosine receptor A1 (Homo sapiens); experiment: Percent loss of [3H]-DPCPX binding to adenosine A1 receptor at 100 nM; settings: Cricetulus griseus
[5] = biological target: T1, Adenosine receptor A1 (Homo sapiens); experiment: Percent loss of [3H]DPCPX binding to adenosine A1 receptor at 5 nM; settings: Cricetulus griseus
[6] = biological target: T2, Adenosine receptor A2a (Rattus norvegicus, UniProt P30543)
T2 sequence (P30543 whole entry): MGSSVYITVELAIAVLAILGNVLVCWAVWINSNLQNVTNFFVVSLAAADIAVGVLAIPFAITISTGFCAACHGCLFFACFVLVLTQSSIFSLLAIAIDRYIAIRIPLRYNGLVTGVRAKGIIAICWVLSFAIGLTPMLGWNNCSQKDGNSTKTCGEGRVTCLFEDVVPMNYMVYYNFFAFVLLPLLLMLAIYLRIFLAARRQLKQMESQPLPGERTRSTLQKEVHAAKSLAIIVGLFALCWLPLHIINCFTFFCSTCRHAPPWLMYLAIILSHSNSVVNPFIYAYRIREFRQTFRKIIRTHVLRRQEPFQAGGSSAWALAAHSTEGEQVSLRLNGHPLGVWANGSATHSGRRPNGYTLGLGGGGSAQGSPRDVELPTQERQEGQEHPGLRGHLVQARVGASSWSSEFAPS
Description: Inhibition of [3H]ZM-241385 binding to adenosine A2A receptor(AR).

[7] = biological target: T2, Adenosine receptor A2a; remark: listed apart in the source
Description: Dissociation constant of [3H]ZM-241385 binding to adenosine A2A receptor(AR)

[8] = biological target: T3, Adenosine receptor A1 (Homo sapiens, UniProt P30542); experiment: Inhibition of [3H]-DPCPX binding to adenosine A1 receptor (AR).; design: species or system Cricetulus griseus
T3 sequence (P30542 whole entry): T1 sequence (whole entry)

Structure (SMILES) | Loss [1] [%] | Loss [5] [%] | IC50 [6] [µM] | IC50 [8] [µM] | further results
CCCn1c(=O)c2nc(C3CCCCC3)[nH]c2n(Cc2ccc(S(=O)(=O)F)cc2)c1=O | 0 | – | – | – | –
CCCn1c(=O)c2nc(C3CCCC3)[nH]c2n(CCCNC(=O)c2ccc(S(=O)(=O)F)cc2)c1=O | – | 74 | 0.0028 | – | Loss [2]: 33%; Loss [3]: 64%; Loss [4]: 83%; Kd [7]: 0.00034 µM
CCCn1c(=O)c2[nH]c(C3CCCCC3)nc2n(Cc2ccc(S(=O)(=O)F)cc2)c1=O | – | – | > 0.01 | 0.165 | –
CCCn1c(=O)c2[nH]c(C3CCCC3)nc2n(CCCOC(=O)c2ccc(S(=O)(=O)F)cc2)c1=O | – | – | 0.0012 | – | Kd [7]: 0.00023 µM
CCCn1c(=O)c2nc(C3CCCC3)[nH]c2n(CCCOC(=O)c2ccc(S(=O)(=O)F)cc2)c1=O | – | 67 | – | – | –
CCCn1c(=O)c2nc(C3CCCCC3)[nH]c2n(CCCCCc2ccc(S(=O)(=O)F)cc2)c1=O | 43 | – | > 0.01 | 0.101 | –
CCCn1c(=O)c2nc(C3CCCCC3)[nH]c2n(CCCc2ccc(S(=O)(=O)F)cc2)c1=O | 11 | – | – | – | –
CCCn1c(=O)c2nc(C3CCCCC3)[nH]c2n(CCCNC(=O)c2ccc(S(=O)(=O)F)cc2)c1=O | – | 64 | – | 0.0249 | Loss [2]: 16%; Loss [3]: 43%; Loss [4]: 82%
CCCn1c(=O)c2[nH]c(C3CCCCC3)nc2n(CCCc2ccc(S(=O)(=O)F)cc2)c1=O | – | – | > 0.01 | 0.112 | –
